Data taken from patent US20180208920A1, “MOLECULAR MACHINES” (Commonwealth Scientific and Industrial Research Organisation, priority 2015, published 2018).

Legend:
[1] = Batch reactions converting glycerol to G3P and DHAP; format: biochemical
Procedure: Reactions were conducted at room temperature in 1 mL total volume with 10 mM glycerol as starting substrate, between 1 and 14 nM of enzyme and 100 μM each of ATP and NAD. Samples were collected at various time points and analysed by LCMS (SIM monitoring for G3P and DHAP).
G3P and DHAP were separated using a modification of the method described in Prieto-Blanc et al., (2010). Chromatographic conditions were SIELC ObeliscN column (250 mm) with 50% mobile phase A, 50% mobile phase B for 30 minutes. Mobile phase A: 0.1% formic acid; mobile phase b: methanol with 0.1% acetic acid. Mass spectrophotometric detection was conducted using API-ES mode with an Agilent 6120 Quadroploe LCMS. Glycerol-3-phosphate was quantified by selected ion monitoring of ion 171, DHAP quantified by selected ion monitoring of ion 169, the three aldol condensation products fructose-1,6-biphosphate, “AP” and “XP” were quantified by selected ion monitoring of […].

EcG3PD2 = target: T1, EcG3PD2 (Escherichia coli, UniProt P0A6S7); assay: Kinetics of glycerol-3-phosphate dehydrogenase with modified cofactor; format: biochemical, E. coli; details: EcG3PD, full kinetic analysis
T1 construct: His tag; made in house; host or cells: E. coli BL21AI or BL21DE3*
T1 sequence (P0A6S7 1-339): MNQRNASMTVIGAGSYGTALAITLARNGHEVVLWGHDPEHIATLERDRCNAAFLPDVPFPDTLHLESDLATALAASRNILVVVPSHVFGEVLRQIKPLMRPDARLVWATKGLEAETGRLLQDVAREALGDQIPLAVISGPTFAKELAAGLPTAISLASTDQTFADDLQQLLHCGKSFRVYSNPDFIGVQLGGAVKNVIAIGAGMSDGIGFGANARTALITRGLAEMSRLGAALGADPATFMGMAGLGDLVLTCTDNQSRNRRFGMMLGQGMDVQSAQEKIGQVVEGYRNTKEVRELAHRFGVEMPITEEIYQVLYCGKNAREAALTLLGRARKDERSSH
Procedure: (§1) The relative enzyme activity for the NAD-dependant glycerol-3-phosphate dehydrogenase enzymes identified for DHAP synthesis was assessed with the modified N^6-2AE-NAD. Kinetic data for EcG3PD and CaNOX was also obtained. To determine the relative activities and kinetic enzyme efficiency, modified N^6-2AE-NAD was reduced enzymatically, separated from enzymes using ultrafiltration and the amount of N^6-2AE-NADH calculated based on the absorbance A340nm.
(§2) Glycerol-3-phosphate dehydrogenase assays were conducted essentially as described by (Sakasegawa et al., 2004). Kinetics were determined by varying the concentrations of NAD/NADP or glycerol-3-phosphate, whilst maintaining the other components in excess, and kinetic determinants were calculated using Hyper (J. S. Easterby, Liverpool University). Substrate and cofactor concentrations ranged from 0.1 to 10×Km.

CaNOX = assay: Kinetics of NADH oxidase (NOX) with modified cofactor; format: biochemical, Clostridium aminoverlaricum; details: for Kcat / Km: cofactor as substrate of CaNOX
Procedure: as §1

[2] = system: EcG3PD::CaNOX::AaE2 (TriF2); format: biochemical, Alicyclobacillus acidophilus; details: after 5 min incubation with inhibitor on ice
CaNOX::AaE2 = format: biochemical, Alicyclobacillus acidophilus; details: after 5 min incubation with inhibitor on ice
[3] = substrate: NC(=O)c1ccc[n+]([C@@H]2O[C@H](COP(=O)([O-])OP(=O)(O)OC[C@H]3O[C@@H](n4cnc5c(N)ncnc54)[C@H](O)[C@@H]3O)[C@@H](O)[C@H]2O)c1; assay: Kinetics of glycerol-3-phosphate dehydrogenase with modified cofactor; format: biochemical, E. coli; details: other: cofactor as substrate of EcG3PD2
Procedure: as §1, §2

[4] = substrate: NCCNc1ncnc2c1ncn2[C@H]1O[C@@H](COP(=O)(O)OP(=O)(O)OC[C@H]2O[C@@H]([n+]3cccc(C(N)=O)c3)C(O)C2O)C(O)C1O; assay: as above; format: biochemical, E. coli; details: other: cofactor as substrate of EcG3PD2
Procedure: as §1, §2

Question: Which “turnover of ATP per hour” value ([1]; BiF1 plus BiF2 batch reaction) does the source give for `Nc1ncnc2c1ncn2[C@@H]1O[C@H](COP(=O)(O)OP(=O)(O)OP(=O)(O)O)[C@@H](O)[C@H]1O` [ATP, adenosine triphosphate] here?
Answer: The value was about 40 h⁻¹.

Question: What about the “turnovers of ATP per batch reaction” value ([1]; BiF1 plus BiF2 batch, 90 mM conversion of glycerol from 0.1 mM ATP starting concentration) of the same molecule?
Answer: Its value is about 200.

Question: What about the “turnovers of ATP per batch reaction” value ([1]; TriF1 plus TriF2 batch, 4.5 mM conversion of glycerol from 0.01 mM ATP starting concentration) of the same molecule?
Answer: The value was about 450.

Question: With `NCCNc1ncnc2c1ncn2[C@H]1O[C@@H](COP(=O)(O)OP(=O)(O)OC[C@H]2O[C@@H]([n+]3cccc(C(N)=O)c3)C(O)C2O)C(O)C1O` (some centres unmarked) [N^6-2AE-NAD, N^6-(2-aminoethyl)-NAD^+] as the molecule, how does the “activity retained with the modified cofactor compared with unmodified NAD” value (EcG3PD2) read?
Answer: The value was 78%.

Question: What does the source list for `NCCNc1ncnc2c1ncn2[C@@H]1O[C@H](COP(=O)(O)OP(=O)(O)OC[C@H]2O[C@@H](N3C=CCC(C(N)=O)=C3)[C@H](O)[C@@H]2O)[C@@H](O)[C@H]1O` [N^6-2AE-NADH]?
Answer: catalytic efficiency compared to NADH as substrate (CaNOX; NOX1 (CaNOX)): reduction in the catalytic efficiency; Kcat (CaNOX): 343 ± 32.6 s⁻¹; Km (CaNOX): 215 ± 27.2 µM

Question: For `NC(=O)C1=CN([C@@H]2O[C@H](COP(=O)(O)OP(=O)(O)OC[C@H]3O[C@@H](n4cnc5c(N)ncnc54)[C@H](O)[C@@H]3O)[C@@H](O)[C@H]2O)C=CC1` [NADH], which Kcat (CaNOX) is on record?
Answer: The Kcat was 1204 ± 67.5 s⁻¹.

Question: And the Km (CaNOX)?
Answer: The Km was 204 ± 15.4 µM.

Question: Which results are given for `CCCCCCSCC(=O)C(F)(F)F` [1,1,1-trifluoro-3-(thiohexyl)propan-2-one]?
Answer: residual esterase activity [2]: completely abolished; residual esterase activity (CaNOX::AaE2): completely abolished

B1: EcG3PD2 (Escherichia coli K-12) (protein)
chain: T1 sequence (P0A6S7 1-339)
notes: His tag; made in house; host or cells: E. coli BL21AI or BL21DE3*
Question: With B1 as the molecule, how does the Km [3] read?
Answer: The Km was 147.1 ± 25.4 µM.

Question: And the kcat [3]?
Answer: Its kcat is 66.7 ± 10.6 s⁻¹.

Question: What about the kcat/Km [3] of the same molecule?
Answer: The kcat/Km was 450000 M⁻¹ s⁻¹.

Question: And the Km [4]?
Answer: Its Km is 181.2 ± 37.5 µM.

Question: What about the kcat [4] of the same molecule?
Answer: The kcat was 63.5 ± 9.4 s⁻¹.

Question: And the kcat/Km [4]?
Answer: Its kcat/Km is 350000 M⁻¹ s⁻¹.
